Entries after “also recorded” stand apart in the source; their conditions may differ.
What was measured:
[1] = test system: S2− InsP3R-1; experiment: Flash photolysis of caged InsP3 (ci-IP3/PM), Fluo-4, Dt-40 3ko cells expressing S2− InsP3R-1 constructs; assay type: cell-based, rat
Method: Transfected cells were simultaneously loaded with the visible wavelength indicator Fluo-4 and a cell-permeable form of caged inositol trisphosphate (ci-IP3/PM) for 30 min. ci-IP3/PM is a homologue of cm-IP3/PM. The 2- and 3-hydroxyls of the inositol ring are protected by an isopropylidene group in ci-IP3/PM and are protected by a methoxymethylene group in cm-IP3/PM (45). Like cm-IP3/PM, ci- IP3/PM diffuses across cell membranes, and the PM group is hydrolyzed by cellular esterases, and Ca^2+ release can be induced upon photouncaging as i-IP3 is liberated from the cage and acts in a similar fashion to InSP3 at InsP3R^2. A further period of 30 min was allowed for de-esterification of both dye and cage. Cells were illuminated at 488±10 nm and fluorescence collected through a 525±25-nm bandpass filter and captured using the Till Photonics imaging suite. […] Photolytic release was performed as described previously by using a pulsed xenon arc lamp (Till Photonics). A high intensity (0.5-5 ms duration; 80 J) discharge of UV light (360±7.5 nm) was reflected onto the plane of focus by using a DM400 dichroic mirror and Nikon 40× oil immersion objective, 1.3 NA.
To investigate the consequences of InsP3R-1 phosphorylation, the Ca^2+ release properties of phosphomimetic mutations in the functionally important sites in both S2+ and S2− InsP3R-1 was analyzed in Dt-40 3ko cells. This cell line provides the only known InsP3R null background (42, 43). In initial experiments, a comparison was made between the sensitivity of Ca^2+ release by InsP3R-1 phosphomimetic mutations versus nonphosphorylatable alanine mutations at the sites. Dt-40 3ko cells were transfected with DNA encoding HcRed to facilitate identification of transfected cells and either S2− S1589E/S1755E InsP3R-1 (S2−EE) or S2− S1589A/S1755A (S2−AA). Ca^2+ release was monitored following flash photolysis of ci-IP3, a cell-permeable form of caged InSP3. This experimental paradigm provides a relatively direct assessment of the effects of InsP3R-1 phosphorylation on the Ca^2+ release process. […]

[2] = biological target: T1, S2+ InsP3R-1 (Rattus norvegicus, UniProt P29994, S1756E); experiment: Flash photolysis of caged InsP3 (ci-IP3/PM), Fluo-4, DT-40 3ko cells expressing S2+ InsP3R-1 constructs; assay type: cell-based; conditions: UV flash 0.5-5 ms
T1 construct: The entire receptor DNA was excised from the plasmid using EcoRI and ligated into the plasmid MXT-1; expressed in transfected cells; host or cells: DT-40 3ko (chicken B cells lacking all InsP3R), co-transfected with m3 muscarinic receptor and HcRed
Method: Transfected cells were simultaneously loaded by incubation with the visible wavelength indicator Fluo-4 and a cell permeable form of caged-inositol trisphosphate (ciIP3/PM) for 30 min. Ci-IP3/PM is a homologue of cm-IP3/PM [45] The 2- and 3-hydroxyls of the inositol ring were protected by an isopropylidene group in ci-IP3/PM, and were protected by a methoxymethylene group in cm-IP3/PM. Like cm-IP3/PM, ci-IP3/PM diffuses across cell membranes and induces internal calcium release upon photo-uncaging. A further period of approximately 30 min was allowed for de-esterification of both dye and cage. Cells were illuminated at 488±10 nm and fluorescence collected through a 525±25 nm band pass filter and captured using the Till Photonics imaging suite. […] Photolytic release was performed as previously described using a pulsed Xenon arc lamp (Till Photonics). […]
Transfected cells were simultaneously loaded with the visible wavelength indicator Fluo-4 and a cell-permeable form of caged inositol trisphosphate (ci-IP3/PM) for 30 min. ci-IP3/PM is a homologue of cm-IP3/PM. […] Cells were illuminated at 488±10 nm and fluorescence collected through a 525±25-nm bandpass filter and captured using the Till Photonics imaging suite. […]

Chain of S2− InsP3R-1 (P29994 1-604 limits assumed): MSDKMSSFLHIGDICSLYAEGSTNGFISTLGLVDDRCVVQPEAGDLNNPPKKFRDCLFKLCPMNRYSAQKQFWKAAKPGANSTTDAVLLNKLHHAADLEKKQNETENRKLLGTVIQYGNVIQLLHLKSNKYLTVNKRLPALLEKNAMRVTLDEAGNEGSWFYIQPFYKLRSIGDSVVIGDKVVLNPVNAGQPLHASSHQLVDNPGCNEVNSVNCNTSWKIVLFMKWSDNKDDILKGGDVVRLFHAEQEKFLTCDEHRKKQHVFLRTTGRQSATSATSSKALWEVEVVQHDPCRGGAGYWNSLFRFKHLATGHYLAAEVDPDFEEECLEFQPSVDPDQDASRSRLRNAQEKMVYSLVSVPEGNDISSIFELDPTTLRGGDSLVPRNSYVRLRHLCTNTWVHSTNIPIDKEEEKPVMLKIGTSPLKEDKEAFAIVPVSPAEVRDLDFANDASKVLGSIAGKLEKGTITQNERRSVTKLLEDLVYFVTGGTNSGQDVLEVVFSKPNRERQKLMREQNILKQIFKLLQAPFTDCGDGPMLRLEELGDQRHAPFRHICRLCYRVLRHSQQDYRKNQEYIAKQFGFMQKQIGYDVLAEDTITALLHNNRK
T1 sequence (P29994 1-2749 isoform P29994-3 S1755E): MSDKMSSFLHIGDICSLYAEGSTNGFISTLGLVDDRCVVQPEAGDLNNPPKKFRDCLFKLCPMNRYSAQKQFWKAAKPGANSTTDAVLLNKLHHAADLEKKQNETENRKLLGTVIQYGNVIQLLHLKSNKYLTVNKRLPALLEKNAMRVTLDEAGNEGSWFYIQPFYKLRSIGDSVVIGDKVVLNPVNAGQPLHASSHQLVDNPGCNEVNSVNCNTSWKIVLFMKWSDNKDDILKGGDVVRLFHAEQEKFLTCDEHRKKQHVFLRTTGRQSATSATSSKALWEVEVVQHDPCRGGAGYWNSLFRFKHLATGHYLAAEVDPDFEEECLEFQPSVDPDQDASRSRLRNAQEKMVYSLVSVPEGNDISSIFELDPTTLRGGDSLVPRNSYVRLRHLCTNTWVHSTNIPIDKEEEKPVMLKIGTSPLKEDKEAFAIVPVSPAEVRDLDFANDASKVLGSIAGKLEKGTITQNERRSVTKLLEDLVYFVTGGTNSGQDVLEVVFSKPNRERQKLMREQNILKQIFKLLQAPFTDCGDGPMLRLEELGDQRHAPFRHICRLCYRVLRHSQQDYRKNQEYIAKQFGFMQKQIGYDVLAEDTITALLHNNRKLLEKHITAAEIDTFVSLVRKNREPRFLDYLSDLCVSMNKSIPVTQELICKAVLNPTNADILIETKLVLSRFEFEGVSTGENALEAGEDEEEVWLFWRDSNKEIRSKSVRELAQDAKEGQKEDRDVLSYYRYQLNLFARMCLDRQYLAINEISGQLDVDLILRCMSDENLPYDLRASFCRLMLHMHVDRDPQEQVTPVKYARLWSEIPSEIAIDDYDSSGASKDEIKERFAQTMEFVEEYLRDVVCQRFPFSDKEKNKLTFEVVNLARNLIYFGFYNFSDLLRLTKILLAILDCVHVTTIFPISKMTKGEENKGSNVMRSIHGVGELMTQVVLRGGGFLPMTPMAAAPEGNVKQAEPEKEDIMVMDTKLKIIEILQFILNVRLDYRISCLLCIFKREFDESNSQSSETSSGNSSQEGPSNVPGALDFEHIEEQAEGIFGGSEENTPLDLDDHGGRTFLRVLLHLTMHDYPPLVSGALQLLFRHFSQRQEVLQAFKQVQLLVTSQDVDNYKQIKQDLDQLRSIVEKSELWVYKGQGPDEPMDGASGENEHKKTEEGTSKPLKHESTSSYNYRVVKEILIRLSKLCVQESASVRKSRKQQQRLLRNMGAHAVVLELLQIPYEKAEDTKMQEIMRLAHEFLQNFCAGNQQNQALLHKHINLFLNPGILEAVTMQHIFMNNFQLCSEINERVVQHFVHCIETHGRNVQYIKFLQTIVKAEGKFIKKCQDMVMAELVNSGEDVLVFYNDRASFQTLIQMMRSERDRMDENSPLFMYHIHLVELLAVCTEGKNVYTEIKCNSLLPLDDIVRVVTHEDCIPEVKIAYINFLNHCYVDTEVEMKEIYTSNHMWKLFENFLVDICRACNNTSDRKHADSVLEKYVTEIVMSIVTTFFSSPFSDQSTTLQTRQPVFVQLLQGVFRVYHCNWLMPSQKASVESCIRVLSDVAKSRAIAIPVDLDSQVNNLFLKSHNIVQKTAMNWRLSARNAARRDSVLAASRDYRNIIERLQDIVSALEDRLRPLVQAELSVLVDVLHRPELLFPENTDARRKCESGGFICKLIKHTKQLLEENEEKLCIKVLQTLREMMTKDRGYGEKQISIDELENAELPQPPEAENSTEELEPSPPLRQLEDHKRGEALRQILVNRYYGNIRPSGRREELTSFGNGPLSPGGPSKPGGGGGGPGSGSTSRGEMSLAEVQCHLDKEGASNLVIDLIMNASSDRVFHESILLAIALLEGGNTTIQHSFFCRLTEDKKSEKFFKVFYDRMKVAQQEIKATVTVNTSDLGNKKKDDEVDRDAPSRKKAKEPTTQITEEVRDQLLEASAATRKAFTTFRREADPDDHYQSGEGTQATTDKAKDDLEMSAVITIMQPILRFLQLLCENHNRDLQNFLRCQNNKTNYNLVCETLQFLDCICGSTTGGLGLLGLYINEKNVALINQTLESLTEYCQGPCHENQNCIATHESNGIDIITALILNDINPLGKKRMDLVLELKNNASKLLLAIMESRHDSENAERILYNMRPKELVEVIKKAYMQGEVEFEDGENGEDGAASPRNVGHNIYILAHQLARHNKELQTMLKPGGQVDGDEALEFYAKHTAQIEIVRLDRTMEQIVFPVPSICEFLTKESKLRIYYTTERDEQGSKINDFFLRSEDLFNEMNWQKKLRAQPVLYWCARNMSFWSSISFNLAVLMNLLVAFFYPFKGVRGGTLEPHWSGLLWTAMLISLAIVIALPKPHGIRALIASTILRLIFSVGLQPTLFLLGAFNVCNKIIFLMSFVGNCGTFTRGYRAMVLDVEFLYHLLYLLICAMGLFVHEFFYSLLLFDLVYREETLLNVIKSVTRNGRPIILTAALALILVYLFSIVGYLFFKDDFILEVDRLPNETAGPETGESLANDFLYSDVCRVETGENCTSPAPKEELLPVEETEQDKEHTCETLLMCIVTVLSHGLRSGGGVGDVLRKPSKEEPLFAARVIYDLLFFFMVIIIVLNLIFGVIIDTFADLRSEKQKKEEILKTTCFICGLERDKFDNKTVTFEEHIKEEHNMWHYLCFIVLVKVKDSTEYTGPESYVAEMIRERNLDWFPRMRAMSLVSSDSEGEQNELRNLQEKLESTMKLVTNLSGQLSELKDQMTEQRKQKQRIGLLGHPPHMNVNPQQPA

Substance	cells showing Ca^2+ release (>0.05% ΔF/F) ([1]; 0.5 ms UV discharge) [%]	cells showing Ca^2+ release ([1]; 1.25 ms UV flash)	response to photolysis of ci-IP3 versus nonphosphorylatable mutant ([1]; UV flash 0.5-5 ms)	response to photolysis of ci-IP3 versus nonphosphorylatable mutant [2]
S2−EE: phosphomimetic S1589E/S1755E mutant of the short splice variant	~60	all cells	lower threshold of UV light exposure	
S2+SE: phosphomimetic S2+ InsP3R-1, long splice variant of S1755E				more robustly; also recorded: more sensitive than S2+SA

Reference: US20080039410A1, “Inositol 1,4,5-Trisphosphate Receptor Mutants and Uses Thereof” (priority 2004, published 2008)
